# Reference: the supplement of paper PMC10307832
# Assays:
# Assay in all cases: relative viability (nuclei count vs DMSO), 5 days (fraction); higher = more cells survive
# PC-14 = system: PC-14
# How it was run: (§1)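 Nuclei were stained with Hoechst during a one-step fixation (final 0.05% Triton X-100, 1% formaldehyde, 1 ug/ml Hoechst) carried out 5 days after dosing, then counted on 4× images. The cells, lung cancer lines in 1536-well plates, had been dosed by pin tool the day after seeding with one drug alone or a fixed anchor-drug dose plus five library-drug doses (not always all listed) in √10 steps. Relative viability is the nuclei count in treated wells divided by that in vehicle wells, and each value is the median of duplicate plates.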
# LK-2 = system: LK-2
# How it was run: as §1
# NCI-H2009 = system: NCI-H2009
# How it was run: as §1
# EKVX = system: EKVX
# How it was run: as §1
# NCI-H1650 = system: NCI-H1650
# How it was run: as §1
# COR-L 105 = system: COR-L 105
# How it was run: as §1
# NCI-H727 = system: NCI-H727
# How it was run: as §1
# NCI-H2170 = system: NCI-H2170
# How it was run: as §1
# NCI-H3122 = system: NCI-H3122
# How it was run: as §1
# 201T = system: 201T
# How it was run: as §1
# COR-L23 = system: COR-L23
# How it was run: as §1
# NCI-H1437 = system: NCI-H1437
# How it was run: as §1
# ABC-1 = system: ABC-1
# How it was run: as §1
# NCI-H1666 = system: NCI-H1666
# How it was run: as §1
# NCI-H838 = system: NCI-H838
# How it was run: as §1
# HCC-366 = system: HCC-366
# How it was run: as §1
# HARA = system: HARA
# How it was run: as §1
# NCI-H441 = system: NCI-H441
# How it was run: as §1
# SW 900 = system: SW 900
# How it was run: as §1
# BEN = system: BEN
# How it was run: as §1
# LU99A = system: LU99A
# How it was run: as §1
# NCI-H661 = system: NCI-H661
# How it was run: as §1
# CAL-12T = system: CAL-12T
# How it was run: as §1
smiles,measurement,setting,value
CC1(C)CCC(c2ccc(Cl)cc2)=C(CN2CCN(c3ccc(C(=O)NS(=O)(=O)c4ccc(N[C@H](CCN5CCOCC5)CSc5ccccc5)c(S(=O)(=O)C(F)(F)F)c4)cc3)CC2)C1 [Navitoclax] + O=C(c1cc(Cc2n[nH]c(=O)c3ccccc23)ccc1F)N1CCN(C(=O)C2CC2)CC1 [Olaparib] (partner 8 µM),relative viability,PC-14; first compound 0.005 µM,0.266
same,relative viability,PC-14; first compound 0.01581 µM,0.28
same,relative viability,PC-14; first compound 0.05 µM,0.283
same,relative viability,PC-14; first compound 0.1581 µM,0.219
same,relative viability,PC-14; first compound 0.5 µM,0.235
same,relative viability,LK-2; first compound 0.005 µM,0.797
same,relative viability,LK-2; first compound 0.01581 µM,0.744
same,relative viability,LK-2; first compound 0.05 µM,0.618
same,relative viability,LK-2; first compound 0.1581 µM,0.726
same,relative viability,LK-2; first compound 0.5 µM,0.798
same,relative viability,NCI-H2009; first compound 0.005 µM,0.698
same,relative viability,NCI-H2009; first compound 0.01581 µM,0.692
same,relative viability,NCI-H2009; first compound 0.05 µM,0.691
same,relative viability,NCI-H2009; first compound 0.1581 µM,0.6
same,relative viability,NCI-H2009; first compound 0.5 µM,0.689
same,relative viability,EKVX; first compound 0.005 µM,0.887
same,relative viability,EKVX; first compound 0.01581 µM,0.994
same,relative viability,EKVX; first compound 0.05 µM,0.784
same,relative viability,EKVX; first compound 0.1581 µM,0.891
same,relative viability,EKVX; first compound 0.5 µM,0.885
same,relative viability,NCI-H1650; first compound 0.005 µM,0.67
same,relative viability,NCI-H1650; first compound 0.01581 µM,0.829
same,relative viability,NCI-H1650; first compound 0.05 µM,0.803
same,relative viability,NCI-H1650; first compound 0.1581 µM,0.784
same,relative viability,NCI-H1650; first compound 0.5 µM,0.649
same,relative viability,COR-L 105; first compound 0.005 µM,0.707
same,relative viability,COR-L 105; first compound 0.01581 µM,0.749
same,relative viability,COR-L 105; first compound 0.05 µM,0.664
same,relative viability,COR-L 105; first compound 0.1581 µM,0.614
same,relative viability,COR-L 105; first compound 0.5 µM,0.666
same,relative viability,NCI-H727; first compound 0.005 µM,0.774
same,relative viability,NCI-H727; first compound 0.01581 µM,0.769
same,relative viability,NCI-H727; first compound 0.05 µM,0.738
same,relative viability,NCI-H727; first compound 0.1581 µM,0.559
same,relative viability,NCI-H727; first compound 0.5 µM,0.721
same,relative viability,NCI-H2170; first compound 0.005 µM,0.574
same,relative viability,NCI-H2170; first compound 0.01581 µM,0.62
same,relative viability,NCI-H2170; first compound 0.05 µM,0.53
same,relative viability,NCI-H2170; first compound 0.1581 µM,0.58
same,relative viability,NCI-H2170; first compound 0.5 µM,0.56
same,relative viability,NCI-H3122; first compound 0.005 µM,0.605
same,relative viability,NCI-H3122; first compound 0.01581 µM,0.577
same,relative viability,NCI-H3122; first compound 0.05 µM,0.576
same,relative viability,NCI-H3122; first compound 0.1581 µM,0.655
same,relative viability,NCI-H3122; first compound 0.5 µM,0.597
same,relative viability,201T; first compound 0.005 µM,0.829
same,relative viability,201T; first compound 0.01581 µM,0.871
same,relative viability,201T; first compound 0.05 µM,0.806
same,relative viability,201T; first compound 0.1581 µM,0.832
same,relative viability,201T; first compound 0.5 µM,0.85
same,relative viability,COR-L23; first compound 0.005 µM,0.374
same,relative viability,COR-L23; first compound 0.01581 µM,0.405
same,relative viability,COR-L23; first compound 0.05 µM,0.375
same,relative viability,COR-L23; first compound 0.1581 µM,0.367
same,relative viability,COR-L23; first compound 0.5 µM,0.398
same,relative viability,NCI-H1437; first compound 0.005 µM,0.619
same,relative viability,NCI-H1437; first compound 0.01581 µM,0.659
same,relative viability,NCI-H1437; first compound 0.05 µM,0.655
same,relative viability,NCI-H1437; first compound 0.1581 µM,0.629
same,relative viability,NCI-H1437; first compound 0.5 µM,0.656
same,relative viability,ABC-1; first compound 0.005 µM,0.909
same,relative viability,ABC-1; first compound 0.01581 µM,0.783
same,relative viability,ABC-1; first compound 0.05 µM,0.838
same,relative viability,ABC-1; first compound 0.1581 µM,0.859
same,relative viability,ABC-1; first compound 0.5 µM,0.776
same,relative viability,NCI-H1666; first compound 0.005 µM,0.749
same,relative viability,NCI-H1666; first compound 0.01581 µM,0.71
same,relative viability,NCI-H1666; first compound 0.05 µM,0.683
same,relative viability,NCI-H1666; first compound 0.1581 µM,0.765
same,relative viability,NCI-H1666; first compound 0.5 µM,0.822
same,relative viability,NCI-H838; first compound 0.005 µM,0.775
same,relative viability,NCI-H838; first compound 0.01581 µM,0.818
same,relative viability,NCI-H838; first compound 0.05 µM,0.834
same,relative viability,NCI-H838; first compound 0.1581 µM,0.775
same,relative viability,NCI-H838; first compound 0.5 µM,0.768
same,relative viability,HCC-366; first compound 0.005 µM,0.362
same,relative viability,HCC-366; first compound 0.01581 µM,0.43
same,relative viability,HCC-366; first compound 0.1581 µM,0.404
same,relative viability,HCC-366; first compound 0.5 µM,0.399
same,relative viability,HARA; first compound 0.005 µM,0.763
same,relative viability,HARA; first compound 0.01581 µM,0.752
same,relative viability,HARA; first compound 0.05 µM,0.579
same,relative viability,HARA; first compound 0.1581 µM,0.789
same,relative viability,HARA; first compound 0.5 µM,0.875
same,relative viability,NCI-H441; first compound 0.005 µM,0.529
same,relative viability,NCI-H441; first compound 0.01581 µM,0.528
same,relative viability,NCI-H441; first compound 0.05 µM,0.627
same,relative viability,NCI-H441; first compound 0.1581 µM,0.429
same,relative viability,NCI-H441; first compound 0.5 µM,0.5
same,relative viability,SW 900; first compound 0.005 µM,0.936
same,relative viability,SW 900; first compound 0.01581 µM,1.01
same,relative viability,SW 900; first compound 0.1581 µM,0.947
same,relative viability,SW 900; first compound 0.5 µM,0.841
same,relative viability,BEN; first compound 0.005 µM,1.07
same,relative viability,BEN; first compound 0.01581 µM,1.06
same,relative viability,BEN; first compound 0.05 µM,0.862
same,relative viability,BEN; first compound 0.1581 µM,1.05
same,relative viability,BEN; first compound 0.5 µM,0.595
same,relative viability,LU99A; first compound 0.005 µM,0.257
same,relative viability,LU99A; first compound 0.01581 µM,0.275
same,relative viability,LU99A; first compound 0.1581 µM,0.269
same,relative viability,LU99A; first compound 0.5 µM,0.276
same,relative viability,NCI-H661; first compound 0.005 µM,0.751
same,relative viability,NCI-H661; first compound 0.01581 µM,0.797
same,relative viability,NCI-H661; first compound 0.05 µM,0.712
same,relative viability,NCI-H661; first compound 0.1581 µM,0.695
same,relative viability,NCI-H661; first compound 0.5 µM,0.751
same,relative viability,CAL-12T; first compound 0.005 µM,0.715
same,relative viability,CAL-12T; first compound 0.01581 µM,0.651
same,relative viability,CAL-12T; first compound 0.05 µM,0.674
same,relative viability,CAL-12T; first compound 0.1581 µM,0.75
same,relative viability,CAL-12T; first compound 0.5 µM,0.791
